# Experimental data published in patent US20250163057A1, “DCN-1 MODULATING COMPOUNDS AND METHODS OF USE THEREOF” (Cellarity, Inc., priority 2023, published 2025).
# Tested on: HBG1 mRNA and HbF protein in bone marrow cells
# Experiment: Induction of fetal hemoglobin by hydroxyurea and I-73 in human CD34+ cell reconstituted immunodeficient mice, with analysis of synergistic effect
# Assay type: in vivo, NBSGW mice engrafted with human CD34+ cells
# Experimental: The model employed for assessment of induction of fetal hemoglobin by I-73 and hydroxyurea involved the use of human stem cell-reconstituted immunodeficient mice. Specifically, three hundred thousand human CD34-positive cells from G-CSF-mobilized human peripheral blood […] (PBMCs) were injected into the tail veins of NOD.Cg-KitW-41J Tyr+Prkdcscid Il2rgtm1Wjl/ThomJ (NBSGW) mice (JAX Strain No. 026622) on day 0. Twelve weeks later, mice were checked for human cell engraftment by sampling PBMCs from blood taken from the tail vein and staining for expression of murine or human CD45 by flow cytometry. After removing from the study those mice having greater than 10% human cells or less than 1% human cells in their peripheral blood, the remaining mice were randomized into treatment groups based on the human cell percentage. Thirteen weeks post engraftment, treatment was initiated with either hydroxyurea, I-73, or a combination of both compounds. Hydroxyurea was formulated in PBS (pH 7.4) and I-73 was formulated in 5% Cremophor RH 40/20% hydroxypropyl-β-cyclodextrin (Crem-CD) daily. Mice received either PBS or hydroxyurea each morning and I-73 or Crem-CD each afternoon by oral gavage. After twenty days of daily treatment, the mice were euthanized and their bone marrow (femurs, tibia and critae) were individually collected for subsequent analysis.
# Bone marrow cell pellets (total 500K cells) were lysed in 20 μL of RLT (QIAGEN, 79216) with 1×β-mercaptoethanol (Gibco, 21985-023) and H2O followed by hybridizations. Hybridizations were done in a total volume of 15 μL [3 μL of RNA lysate added to master mix of 12 μL probe A/B (purchased from IDT), capture probe/reporter probes (NanoString™, XT TagSet-24, 121000602), proteinase K (Fisher Scientific, E00491) and H2O suspended in hybridization buffer]. Samples were hybridized at 65° C. for 22 hr. Following hybridization, the tripartide complexes were purified, immobilized by nCounter Prep Station and imaged by Digital Analyzer (nCounter MAX/FLEX Analysis System), to generate digital counts of barcodes corresponding to each target in the multiplexed reaction. Labeled barcodes obtained from unamplified extracts were counted at 555 images or field of view (FOV). The barcode counts for each sample were recorded in Reporter Code Count (RCC) files that are imported into nSolver analysis software (provided with CodeSet by NS) for quality control evaluation.
# To assess levels of fetal hemoglobin by AlphaLISA, cells (200 k bone marrow cells/well) were lysed by resuspending pellets in 200 μL of lysis buffer plus protease inhibitor cocktail (100×), mixed well and incubating at room temperature for 30 minutes on the plate shaker @300 RPMs. Samples were then diluted 1:10 in a new 96-well round bottom plate by taking 10 uL of lysate and adding 90 μL of AlphaLISA immunoassay buffer. To create the “reaction plate”, 20 μL of Acceptor Beads (50 ug/mL final concentration) was added to each well using a multi-channel pipet. 10 uL of diluted cell lysate was added to the wells and mixed well. 20 μL of AlphaLISA immunoassay buffer was added to each well. Biotinylated antibody (final concentration) was then added to each well. The reaction plate on then placed on a plate shaker at 300 rpm for one hour to incubate at room temperature. After the first incubation was complete, 50 μL of Donor Beads ([…] final concentration) was added to each well and mixed well, keeping the plate in the dark. The covered plate was placed on a shaker at 350 rpm for 30 minutes to incubate at room temperature. After incubation, all 100 uL in each to an AlphaPlate in the dark. Plates were read on a VictorNIVO using the “Alpha 96 Well” setting. Alpha reading was programmed as the default setting with emission at 700 ms and 575/110n. […]
smiles,measurement,setting,value
"CCN1C(=O)[C@@H](NC(=O)c2cccc(C(F)(F)F)c2)[C@@H](c2ccc(F)cc2)c2c([C@@H](C)NC#N)nn(-c3ccccc3)c21 [Compound I-73, N-((4S,5S)-3-((R)-1-cyanamidoethyl)-7-ethyl-4-(4-fluorophenyl)-6-oxo-1-phenyl-4,5,6,7-tetrahydro-1H-pyrazolo[3,4-b]pyridin-5-yl)-3-(trifluoromethyl)benzamide]",average increase of HbF % over vehicle,"I-73 25 mg/kg alone, WLS ANOVA estimate",1.11
same,percentage of HbF protein by HPLC in GlyA-positive bone marrow cells,"compared with vehicle treatment group, FIG. 7",significant increase
same,percentage of bone marrow cells expressing human CD45,in vivo,did not alter
same,HbF level on a per erythroid progenitor (GlyA-positive) cell basis by AlphaLISA,treatment alone,induced increased levels of HbF
